Reference: patent US20110152267A1, “Compositions and Methods for Treating Hyperproliferative Disorders” (Texas Tech University System, priority 2009, published 2011)

Key:
Format in all cases: cell-based, human
[1] = test system: PC-3 prostate adenocarcinoma cell line; assay: DIMSCAN cytotoxicity, fenretinide + L-threo-sphinganines 3:1 (Example B17)
Procedure: (§1) Cytotoxicity Assay—Once again, cytotoxicity is determined using the DIMSCAN assay system (R. Proffitt et al., Cytometry 24, 204-213 (1996); T. Frgala et al., Mol Cancer Ther. 6:886-97, 2007). The system employs digital imaging microscopy to quantify viable cells, which selectively accumulate fluorescein diacetate to become brightly fluorescent. The system is capable of measuring cytotoxicity over a 4-5 log dynamic range by quenching the residual fluorescence of dead and dying cells with eosin Y and quantifying the total fluorescence of viable cells using digital thresholding. Measured fluorescence is directly proportionate to the number of viable cells. A comparison of the total fluorescence of a drug-treated cell population to the fluorescence of a similar number of untreated cells yields a survival fraction. In brief, 2000 to 10,000 cells/well (depending on size and growth rates) are replicate plated into 60 wells of a 96-well tissue culture plate in 0.1 mL of whole medium and allowed to attach overnight. Drug(s) are then added in 0.05 mL of whole medium to the final concentrations indicated. Drugs (fenretinide, and various chain length L-threo-sphinganines) were tested both as single agents and in a 3:1 ratio of fenretinide:sphinganine. C18-L-threo-sphinganine, or “safingol,” was also tested and results shown for reference. There are 12 wells treated per drug concentration. Twelve wells receive drug vehicle-only to the appropriate final concentration and serve as controls for the plate. Cells are incubated for 96 hours at 37° C. in ambient air with 5% CO2. Fluorescein diacetate is then added to each well in 0.05 mL media to a final concentration of 8 microgram/mL. Cells are incubated for a further 15 minutes at 37° C. and 0.03 mL of 0.5% eosin Y is added to each well. Total fluorescence of viable cells is then measured by digital imaging microscopy. Results were graphed as the ratio of the fluoresecence of drug-treated wells to non-drug treated control wells (i.e., Survival Fraction). All tests were performed at least twice. Representative results are shown.
(§2) The Combination Index (CI) is a term to describe mathematical modeling of the pharmacologic effects on cytotoxicity (cell death) of two drugs in combination based. Cytotoxic “synergy” is defined as a cell death affect which is greater than would be expected from a simple product of the single agent cytotoxicities alone (i.e. an “additive” effect). By Chou-Talalay analysis, a CI<0.9 on a Fraction Affected (“Fa”, i.e. fraction of cells killed) indicates synergy, with smaller numbers indicating greater synergy; a CI of 0.9-1.1 signifies an additive or near-additive effect; and a CI>1.1 means the drug combination is antagonistic.
Fenretinide and L-threo-sphinganines tested in human prostate adenocarcinoma (prostate cancer) cell line, PC-3.

[2] = test system: HT-29 colorectal adenocarcinoma cell line; assay: DIMSCAN cytotoxicity, fenretinide + L-threo-sphinganines 3:1 (Example B10); conditions: 96 h
Procedure: as §1, §2
Fenretinide and L-threo-sphinganines tested in human colorectal adenocarcinoma (colon cancer) cell line, HT-29.

[3] = test system: SJ-GBM2 Glioblastoma multiforme cell line; assay: DIMSCAN cytotoxicity, fenretinide + L-threo-sphinganines 3:1 (Example B7); set-up: key to CI (Combination Index): Chou-Talalay CI: <0.9 synergy, 0.9-1.1 additive, >1.1 antagonism; conditions: 96 h
Procedure: as §1, §2
Fenretinide and L-threo-sphinganines tested in human Glioblastoma multiforme (brain cancer) cell line, SJ-GBM2.

[4] = test system: U-118 Glioblastoma cell line; assay: DIMSCAN cytotoxicity, fenretinide + L-threo-sphinganines 3:1 (Example B5); set-up: key to CI (Combination Index): CI<0.9 synergy, 0.9-1.1 additive, >1.1 antagonistic; conditions: U-118 MG, 96 h
Procedure: as §1, §2
Fenretinide and L-threo-sphinganines tested in human Glioblastoma (brain cancer) cell line, U-118.

[5] = test system: T98G Glioblastoma multiforme cell line; assay: DIMSCAN cytotoxicity, fenretinide + L-threo-sphinganines 3:1 (Example B6); conditions: 96 h
Procedure: as §1, §2
Fenretinide and L-threo-sphinganines tested in human Glioblastoma multiforme (brain cancer) cell line, T98G.

[6] = test system: PANC-1 pancreatic adenocarcinoma cell line; assay: DIMSCAN cytotoxicity, fenretinide + L-threo-sphinganines 3:1 (Example B18)
Procedure: as §1, §2
Fenretinide and L-threo-sphinganines tested in human pancreatic adenocarcinoma (pancreas cancer) cell line, PANC-1.

[7] = test system: U-266 Multiple Myeloma cell line; assay: DIMSCAN cytotoxicity, fenretinide + L-threo-sphinganines 3:1 (Example B3); conditions: 96 h
Procedure: as §1, §2
Fenretinide and L-threo-sphinganines tested in human Multiple Myeloma (a cancer of the blood and bone marrow) cell line, U-266.

[8] = test system: A-2058 melanoma cell line; assay: DIMSCAN cytotoxicity, fenretinide + L-threo-sphinganines 3:1 (Example B11); conditions: 96 h
Procedure: as §1, §2
Fenretinide and L-threo-sphinganines tested in human melanoma (skin cancer) cell line, A-2058.

[9] = 4-HPR 1.5 μM + L-threo-sphinganine 0.5 μM
[10] = 4-HPR 3 μM + L-threo-sphinganine 1 μM
[11] = 4-HPR 6 μM + L-threo-sphinganine 2 μM
[12] = 4-HPR 9 μM + L-threo-sphinganine 3 μM

SMILES: CCCCCCCCCCCC[C@H](O)[C@@H](N)CO [C15]
- CI [1, 9]: 0.6
- Fa [1, 9]: 0.200
- CI [1, 10]: 0.9
- Fa [1, 10]: 0.287
- CI [1, 11]: 1.2
- Fa [1, 11]: 0.417
- CI [1, 12]: 1.0
- Fa [1, 12]: 0.621
- CI (Combination Index) [2, 9]: 2.0
- Fa (fraction affected) [2, 9]: 0.204
- CI (Combination Index) [2, 10]: 0.8
- Fa (fraction affected) [2, 10]: 0.660
- CI (Combination Index) [2, 11]: 1.1
- Fa (fraction affected) [2, 11]: 0.859
- CI (Combination Index) [2, 12]: 0.8
- Fa (fraction affected) [2, 12]: 0.976
- CI (Combination Index) [3, 9]: 1.7
- Fa (fraction affected) [3, 9]: 0.086
- CI (Combination Index) [3, 10]: 1.1
- Fa (fraction affected) [3, 10]: 0.301
- CI (Combination Index) [3, 11]: 0.9
- Fa (fraction affected) [3, 11]: 0.765
- CI (Combination Index) [3, 12]: 1.0
- Fa (fraction affected) [3, 12]: 0.953
- CI (Combination Index) [4, 9]: 0.4
- Fa (fraction affected) [4, 9]: 0.371
- CI (Combination Index) [4, 10]: 0.5
- Fa (fraction affected) [4, 10]: 0.577
- CI (Combination Index) [4, 11]: 0.4
- Fa (fraction affected) [4, 11]: 0.847
- CI (Combination Index) [4, 12]: 0.1
- Fa (fraction affected) [4, 12]: 0.989
- CI (Combination Index) [5, 9]: 1.3
- Fa (fraction affected) [5, 9]: 0.516
- CI (Combination Index) [5, 10]: 1.3
- Fa (fraction affected) [5, 10]: 0.683
- CI (Combination Index) [5, 11]: 1.0
- Fa (fraction affected) [5, 11]: 0.849
- CI (Combination Index) [5, 12]: 0.4
- Fa (fraction affected) [5, 12]: 0.962
- CI [6, 9]: 2.9
- Fa [6, 9]: 0.078
- CI [6, 10]: 2.2
- Fa [6, 10]: 0.205
- CI [6, 11]: 1.7
- Fa [6, 11]: 0.486
- CI [6, 12]: 0.2
- Fa [6, 12]: 0.978
- CI (Combination Index) [7, 9]: 1.2
- Fa (fraction affected) [7, 9]: 0.085
- CI (Combination Index) [7, 10]: 1.5
- Fa (fraction affected) [7, 10]: 0.241
- CI (Combination Index) [7, 11]: 1.2
- Fa (fraction affected) [7, 11]: 0.697
- CI (Combination Index) [7, 12]: 0.9
- Fa (fraction affected) [7, 12]: 0.929
- CI (Combination Index) [8, 9]: 0.5
- Fa (fraction affected) [8, 9]: 0.053
- CI (Combination Index) [8, 10]: 0.9
- Fa (fraction affected) [8, 10]: 0.106
- CI (Combination Index) [8, 11]: 1.6
- Fa (fraction affected) [8, 11]: 0.262
- CI (Combination Index) [8, 12]: 1.7
- Fa (fraction affected) [8, 12]: 0.867

SMILES: CCCCCCCCCCCCCCCCC[C@H](O)[C@@H](N)CO [C20, (2S,3S)-2-amino-1,3-icosanediol]
- CI [1, 9]: 1.0
- Fa [1, 9]: 0.217
- CI [1, 10]: 1.1
- Fa [1, 10]: 0.393
- CI [1, 11]: 1.2
- Fa [1, 11]: 0.620
- CI [1, 12]: 0.5
- Fa [1, 12]: 0.916
- CI (Combination Index) [2, 9]: 0.8
- Fa (fraction affected) [2, 9]: 0.287
- CI (Combination Index) [2, 10]: 0.6
- Fa (fraction affected) [2, 10]: 0.852
- CI (Combination Index) [2, 11]: 0.6
- Fa (fraction affected) [2, 11]: 0.971
- CI (Combination Index) [2, 12]: 0.4
- Fa (fraction affected) [2, 12]: 0.998
- CI (Combination Index) [3, 9]: 0.5
- Fa (fraction affected) [3, 9]: 0.055
- CI (Combination Index) [3, 10]: 0.6
- Fa (fraction affected) [3, 10]: 0.737
- CI (Combination Index) [3, 11]: 0.7
- Fa (fraction affected) [3, 11]: 0.998
- CI (Combination Index) [3, 12]: 0.3
- Fa (fraction affected) [3, 12]: 1.000
- CI (Combination Index) [4, 9]: 1.8
- Fa (fraction affected) [4, 9]: 0.645
- CI (Combination Index) [4, 10]: 0.5
- Fa (fraction affected) [4, 10]: 0.984
- CI (Combination Index) [4, 11]: 0.3
- Fa (fraction affected) [4, 11]: 0.998
- CI (Combination Index) [4, 12]: 0.3
- Fa (fraction affected) [4, 12]: 0.999
- CI (Combination Index) [5, 9]: 2.4
- Fa (fraction affected) [5, 9]: 0.397
- CI (Combination Index) [5, 10]: 0.2
- Fa (fraction affected) [5, 10]: 0.989
- CI (Combination Index) [5, 11]: >0.1
- Fa (fraction affected) [5, 11]: 1.000
- CI (Combination Index) [5, 12]: >0.1
- Fa (fraction affected) [5, 12]: 1.000
- CI [6, 9]: 1.9
- Fa [6, 9]: 0.136
- CI [6, 10]: 1.9
- Fa [6, 10]: 0.291
- CI [6, 11]: 1.2
- Fa [6, 11]: 0.653
- CI [6, 12]: 0.1
- Fa [6, 12]: 0.990
- CI (Combination Index) [7, 9]: 1.2
- Fa (fraction affected) [7, 9]: 0.259
- CI (Combination Index) [7, 10]: 1.3
- Fa (fraction affected) [7, 10]: 0.688
- CI (Combination Index) [7, 11]: 0.4
- Fa (fraction affected) [7, 11]: 0.999
- CI (Combination Index) [7, 12]: >0.1
- Fa (fraction affected) [7, 12]: 1.000
- CI (Combination Index) [8, 9]: 0.7
- Fa (fraction affected) [8, 9]: 0.311
- CI (Combination Index) [8, 10]: 1.0
- Fa (fraction affected) [8, 10]: 0.742
- CI (Combination Index) [8, 11]: 1.7
- Fa (fraction affected) [8, 11]: 0.870
- CI (Combination Index) [8, 12]: 0.5
- Fa (fraction affected) [8, 12]: 1.000
